# Measurements published in patent US20180258069A1, “NEW CRYSTAL OF PIPERAZINE COMPOUND” (TAIHO PHARMACEUTICAL CO., LTD., priority 2015, published 2018).
# Key:
# [1] = Solid stability test (under exposure to light); format: physicochemical; conditions: for Change of crystal form (powder X-ray crystal analysis): room temperature, after irradiation at 3500000 lux·h (2000 lux×1750 h)
# Experimental: Using crystals I and II obtained in the Examples, the solid stability after storage under exposure to light was measured.
# Storage conditions: crystal I was stored at room temperature under exposure to light after being placed in a transparent glass dish covered with a lid. Measurement point: after irradiation at 3500000 lux·h (irradiation at 2000 lux×1750 h)
# Storage Container: Transparent Glass Dish
# The powder X-ray diffraction upon the storage stability test was measured after an appropriate amount of the test substance was lightly pulverized as necessary using an agate mortar under the following test conditions.
# Device: MiniFlex II, Rigaku Corporation
# X-ray output power: 15 mA, 30 kV Scanning range: 3.0 to 40.0° Step size: 0.010° Scanning speed: […]. Divergence slit: 1.25° Scatter slit: open Receiving slit: open
# [2] = Dynamic vapor sorption (DVS) system analysis (moisture adsorption-desorption test); format: physicochemical; conditions: 25° C., 5% to 95% RH
# Experimental: Dynamic vapor sorption (DVS) system analysis was performed under the following conditions.
# Device: VTI SGA-100, TA Instruments
# Sample: about 10 mg Measurement temperature: 25° C. RH steps: 5-95-1% RH by 5% RH
# Hygroscopic properties of crystals I and II obtained in the Examples were confirmed by dynamic vapor sorption (DVS) system analysis.
# The adsorption and desorption data was collected at 5% RH intervals in a range of relative humidity (RH) of 5% to 95%. Before the measurement, the samples were heated under nitrogen purging to 25° C. at 1° C./min, followed by drying for up to 6 hours until the weight change in 5 minutes became less than 0.0100%. The measurement was performed with equilibration for up to 2 hours until the weight change in 5 minutes became less than 0.0100%.
# [3] = Solid stability test (40° C., under light shielding), chemical purity by HPLC; format: physicochemical
# Experimental: Using crystal I obtained in the Examples, the solid stability after storage at 40° C. under light shielding was measured.
# Storage conditions: crystal I was stored at 40° C. after being placed in a light shielding bottle covered with a lid. Measurement points: after 1 month, after 3 months, after 6 months
# The amount of analog in the sample solution was measured by HPLC analysis. Handling of the device, including data processing, was performed in accordance with the method and procedures specified for each device (device: 2130-2450, HITACHI).
# Column: Mightysil RP-18 GP 150-4.6 (5 μm)
# UV detection: 220 nm Column temperature: 40° C. Column flow rate: 1.0 mL/min Mobile phase: A: acetonitrile, B: 10 mM phos. buffer
# [4] = molecular target: hematopoietic prostaglandin D synthase (H-PGDS) (Homo sapiens, UniProt O60760); conditions: disclosed in Patent Document 1; cited from earlier work
# Chain of hematopoietic prostaglandin D synthase (H-PGDS) (O60760 whole entry): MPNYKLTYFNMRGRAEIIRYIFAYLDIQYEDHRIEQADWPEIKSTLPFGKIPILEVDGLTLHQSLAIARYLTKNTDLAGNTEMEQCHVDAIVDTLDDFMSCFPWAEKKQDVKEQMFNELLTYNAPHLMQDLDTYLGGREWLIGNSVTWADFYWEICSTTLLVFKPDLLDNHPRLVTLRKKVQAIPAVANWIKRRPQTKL
SMILES,Chemical purity after long-term storage under exposure to light [1],Change of crystal form (powder X-ray crystal analysis) [1],Change in weight due to changes in humidity [2],Powder X-ray crystal analysis before and after moisture adsorption and desorption [2],Chemical Purity (%) ([3]; After 1 month at 40° C. under light shielding),Chemical Purity (%) ([3]; After 3 months at 40° C. under light shielding),Chemical Purity (%) ([3]; After 6 months at 40° C. under light shielding),"Chemical Purity (%) ([3]; Initial Value, before storage)",Change of chemical purity after storage ([3]; storage at 40° C. under light shielding),H-PGDS inhibiting effect [4]
"Cn1cccc1C(=O)N1CCN(C(=O)Nc2ccc(N3CCC(C(=O)N4CCOCC4)CC3)cc2)CC1 [crystal II, 4-((1-methylpyrrol-2-yl)-carbonyl)-N-(4-(4-morpholin-1-yl-carbonylpiperidin-1-yl)-phenyl)-1-piperazinecarboxamide]",not decreased,changed,great change in weight,not changed,–,–,–,–,–,–
"Cn1cccc1C(=O)N1CCN(C(=O)Nc2ccc(N3CCC(C(=O)N4CCOCC4)CC3)cc2)CC1 [crystal I, monohydrate of 4-((1-methylpyrrol-2-yl)-carbonyl)-N-(4-(4-morpholin-1-yl-carbonylpiperidin-1-yl)-phenyl)-1-piperazinecarboxamide]",not decreased,not changed,no changes in weight,not changed,99.8%,99.6%,99.9%,99.8%,not changed,–
"Cn1cccc1C(=O)N1CCN(C(=O)Nc2ccc(N3CCC(C(=O)N4CCOCC4)CC3)cc2)CC1 [Compound (1), 4-((1-methylpyrrol-2-yl)-carbonyl)-N-(4-(4-morpholin-1-yl-carbonylpiperidin-1-yl)-phenyl)-1-piperazinecarboxamide]",–,–,–,–,–,–,–,–,–,inhibiting effect
